Data on eight molecules can be found in ChEMBL document CHEMBL1821608, “Fragment library screening reveals remarkable similarities between the G protein-coupled receptor histamine H₄ and the ion channel serotonin 5-HT₃A” (Bioorg Med Chem Lett, 2011).

Structures are written as SMILES. The source made the active and inactive calls. The rule behind the calls is not given here.

The target in test [1] is T1, 5-hydroxytryptamine receptor 3A (Homo sapiens) (UniProt P46098).
T1 sequence (whole entry): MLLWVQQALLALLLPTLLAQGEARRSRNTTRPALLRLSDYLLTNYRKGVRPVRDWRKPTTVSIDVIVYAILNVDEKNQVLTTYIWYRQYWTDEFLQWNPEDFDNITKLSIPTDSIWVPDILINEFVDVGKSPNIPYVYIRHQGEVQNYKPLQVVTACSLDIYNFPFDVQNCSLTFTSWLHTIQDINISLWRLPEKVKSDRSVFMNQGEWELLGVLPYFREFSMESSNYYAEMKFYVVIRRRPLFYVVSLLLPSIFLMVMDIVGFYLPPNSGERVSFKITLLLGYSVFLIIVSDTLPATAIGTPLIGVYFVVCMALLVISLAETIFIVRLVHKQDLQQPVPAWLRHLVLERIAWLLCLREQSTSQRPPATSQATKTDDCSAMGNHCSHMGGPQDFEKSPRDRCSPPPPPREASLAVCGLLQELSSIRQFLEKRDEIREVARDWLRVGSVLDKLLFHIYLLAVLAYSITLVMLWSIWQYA
In words: Displacement of [3H]granisetron from human 5-HT3AR expressed in HEK293 cells after 24 hrs by liquid scintillation counting. In kind it is cell-based. On the technique in general: In a radioligand displacement assay an active substance lowers the binding of a labelled ligand.

The target in test [2] is T2, Histamine H4 receptor (Homo sapiens, UniProt Q9H3N8). The test is described as follows: Binding affinity to H4R receptor.
T2 sequence (Q9H3N8 whole entry): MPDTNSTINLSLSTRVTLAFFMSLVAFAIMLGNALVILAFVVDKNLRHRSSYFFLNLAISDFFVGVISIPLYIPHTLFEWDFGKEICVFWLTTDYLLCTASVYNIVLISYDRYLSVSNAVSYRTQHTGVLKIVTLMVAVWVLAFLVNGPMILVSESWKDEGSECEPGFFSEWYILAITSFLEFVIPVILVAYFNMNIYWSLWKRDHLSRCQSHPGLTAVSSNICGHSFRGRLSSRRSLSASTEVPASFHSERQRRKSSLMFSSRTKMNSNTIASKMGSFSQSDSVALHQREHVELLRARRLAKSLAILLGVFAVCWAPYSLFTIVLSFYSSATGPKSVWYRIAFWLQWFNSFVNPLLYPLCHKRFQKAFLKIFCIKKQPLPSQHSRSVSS
The target of test [3] is T2, Histamine H4 receptor. The test is described as follows: Displacement of [3H]histamine from human H4R receptor expressed in HEK293 cells at 10 uM after 1.5 hrs by liquid scintillation counting. Type of test: cell-based.
Test [4] concerns the target T1, 5-hydroxytryptamine receptor 3A (Homo sapiens). In words: Inhibition of 5-HT3AR at 10 uM.

With `c1ccc(CNCCc2c[nH]cn2)cc1`, the pKi entry in test [1] is “inactive”.

Usually Ki stands for a dissociation constant, usually derived from enzyme kinetics or from competition with a known ligand. `Nc1nc2c(c(N3CCNCC3)n1)CCC1=C2[C@@H]2CCCC[C@@H]2O1` had a Ki at Histamine H4 receptor [2] of 79.4 nM.

As for `N=C(N)NCCCc1ccccc1`, on Histamine H4 receptor [3], the pKi entry was “inactive”.

In the case of `c1cncc(Cc2c[nH]cn2)c1`, in test [1], the pKi entry is “inactive”.

As to `CN1CCN(c2cc(-c3ccccc3)ncn2)CC1`, the pKi entry in test [1] is “inactive”.

Turning to `Clc1ccc(C2CCNC2)cc1` (stereo not drawn), at Histamine H4 receptor [3], the pKi entry is “inactive”.

`Nc1ccc2cc3ccccc3nc2c1`: the pKi entry on Histamine H4 receptor [3] was “inactive”.

The inhibition is the change of the read-out against control, counted positive when it falls. A low value points to a weak effect. For `Nc1nc2c(c(N3CCNCC3)n1)CCCc1ccccc1-2`, the inhibition in test [4] came to 98%.
